In the assay the test system is Podolepis canescens seeds. The experiment in a line: Compound 1a as a replacement for light or gibberellic acid. Format: in vivo. The note with it: 1, 10 or 100 ppb compound 1a; similar to gibberellic acid. On the procedure: Three replicates of 50 seeds of Podolepis canescens were placed on Petri dishes containing filter paper moistened with de-ionised water (control), 1, 10 or 100 ppb compound 1a or 1000 ppm gibberellic acid. The Petri dishes were incubated at 12/12 hr alternating temperatures of 7/18° C., 13/26° C. or 18/33° C. and incubated in white light or continuous darkness. All of the treatments were added to the Petri dishes in complete darkness prior to moving to the incubators. Germination was recorded following 7 days incubation.

Each structure is given as a SMILES string.

With `Cc1c2ccocc-2oc1=O` [Compound 1a, 3-Methyl-2H-furo[2,3-c]pyran-2-one], the “germination in the dark of light-requiring Podolepis canescens” value is given as “stimulates germination in the dark”.

Source of the values: patent publication US20070105721A1, “Vinylogous 4-Hpyrones and their use in promoting plant growth” (priority 2003, published 2007).
